Results taken from patent publication US5091389A, “Lipophilic macrolide useful as an immunosuppressant” (Merck & Co., Inc., priority 1991, dated 1992).

How the values were obtained:
mouse T cells = assay: Inhibition of T-cell proliferation (mouse T cells stimulated with ionomycin + PMA, tritiated-thymidine incorporation); type: cell-based; conditions: for Percent Inhibition of Proliferation / reversal of inhibitory activity by exogenous IL-2: mouse T cells; for reversal of inhibitory activity by exogenous IL-2: exogenous IL-2 (50 units/ml)
Source text: Biological activity as a immunosupressant can be measured in terms of inhibition of T-cell proliferation.

[1] = test system: heart, kidney, bowel, pancreas or other transplantation; conditions: in combination with Cyclosporin A; cited from earlier work
[2] = test system: heterotopic heart allografts; conditions: rats given heterotopic heart allografts, cited from earlier work
immune response = conditions: rats; cited from earlier work

COC1CC2CCC(C)C(O)(O2)C(=O)C(=O)N2CCCCC2C(=O)OC(C(C)CC2CCC(O)C(OC)C2)CC(=O)C(C)/C=C(\C)C(O)C(O)C(=O)C(C)CC(C)/C=C/C=C/C=C/1C (centres unmarked) [29-desmethyl-rapamycin, 29-desmethyl rapamycin]
Percent Inhibition of Proliferation (mouse T cells; 0.001 μM, ionomycin + PMA): 7% | Percent Inhibition of Proliferation (mouse T cells; 0.01 μM, ionomycin + PMA): 32% | Percent Inhibition of Proliferation (mouse T cells; 0.12 μM, ionomycin + PMA): 49% | Percent Inhibition of Proliferation (mouse T cells; 1.2 μM, ionomycin + PMA): 59% | Percent Inhibition of Proliferation (mouse T cells; 11.2 μM, ionomycin + PMA): 88% | reversal of inhibitory activity by exogenous IL-2 (mouse T cells; ionomycin + PMA): not reversed by exogenous IL-2 | inhibition of proliferation of mouse T cells (qualitative) (mouse T cells; ionomycin + PMA): found to inhibit the proliferation of mouse T cells

CO[C@H]1C[C@@H]2CC[C@@H](C)[C@@](O)(O2)C(=O)C(=O)N2CCCC[C@H]2C(=O)O[C@H]([C@H](C)C[C@@H]2CC[C@@H](O)[C@H](OC)C2)CC(=O)[C@H](C)/C=C(\C)[C@@H](O)[C@@H](OC)C(=O)[C@H](C)C[C@H](C)/C=C/C=C/C=C/1C [rapamycin]
effect on amount of Cyclosporin A required [1]: reducing the amount of Cyclosporin A required to produce its immunosupressive effect | effect on nephrotoxicity of Cyclosporin A [1]: effectively reducing the nephrotoxicity inherent in treatment with Cyclosporin A | toxicity ([2]; compared with what would be anticipated with FK-506): less toxicity was said to be experienced than would be anticipated with FK-506 | immunosuppression in heart allograft recipients [2]: immunosuppressive in rats given heterotopic heart allografts | inhibition at 1.1 µM (mouse T cells; Mus musculus, T-cell, read-out: inhibited the proliferation): 65% | reversal of inhibitory activity by exogenous IL-2 (mouse T cells; ionomycin + PMA): not reversed by exogenous IL-2 | inhibition of the response to allergic encephalomyelitis, adjuvant-induced arthritis and antibody production (immune response): inhibiting the response to allergic encephalomyelitis,adjuvant-induced arthritis and antibody production in rats
